Columns and labels:
[1] = Solubility of PRASL in the adhesive matrix; type: physicochemical; settings: acrylate adhesive matrix DuroTak 387-2287
From the text: The selection of suitable adhesive matrices occurs based on the solubility of PRASL in the adhesive matrices. Suitable adhesive matrices for the present invention are those in which the solubility of PRASL is between 0.1 to 5%. Adhesive matrices, in which the solubility of PRASL is between 0.1 to 2%, have proven to be especially suitable.
If the solubility of the adhesive matrix used for PRASL is larger than 2 to 5%, as e.g. in the case of the acrylate adhesive matrix, DuroTak 387-2287, the entire effective ingredient amount dissolves after film-formation and the advantages of the amorphous effective ingredient dispersion according to the present invention cannot be employed.

[2] = background statement; cited from earlier work

Solubility of the adhesive matrix for PRASL [1]: 2 to 5%
Compound: O=C1OCc2cc(NC(=O)[C@](O)(CC3(c4cc(C(F)(F)F)ccc4F)CC3)C(F)(F)F)ccc21 [PRASL, (R)-3-{1-[2-fluoro-5-(trifluoromethyl)-phenyl]-cyclopropyl}-2-hydroxy-N-(phthalid-5-yl)-2-(trifluoromethyl)-propanamide]
Daily dosage that activates pharmacological effects [2]: 30 micrograms
